#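 1) Cells in 96-well plates. 2) Compound, 48 h, 5 concentrations. 3) Linear interpolation between surrounding doses. 4) Unreached endpoint = highest concentration. GI50 is the concentration that inhibits growth by half. TGI: total growth inhibition.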
# How the values were obtained:
# Assay in all cases: NCI tumour cell line growth inhibition, 48 h
# [1] = test system: 786-0 renal
# [2] = test system: A549 NSCLC
# [3] = test system: ACHN renal
# [4] = test system: IGROV1 ovarian
# [5] = test system: NCI-H460 lung
# [6] = test system: OVCAR-3 ovarian
# [7] = test system: RXF 393 renal
# [8] = test system: U251 CNS
# [9] = test system: UO-31 renal
# [10] = test system: UACC-257 melanoma
SMILES,GI50 [1],TGI [1],GI50 [2],TGI [2],GI50 [3],TGI [3],GI50 [4],TGI [4],GI50 [5],TGI [5],GI50 [6],TGI [6],GI50 [7],TGI [7],GI50 [8],TGI [8],GI50 [9],TGI [9],GI50 [10],TGI [10]
O=C(CCl)Nc1ccccc1SCc1cc(Cl)cc2c1OCOC2,12.6 µM,26.4 µM,20.2 µM,45.1 µM,10.6 µM,23.8 µM,2.27 µM,5.62 µM,18.4 µM,38.1 µM,2.08 µM,4.24 µM,7.24 µM,20.9 µM,16.1 µM,31.3 µM,2.95 µM,15 µM,–,–
CS(=O)(=O)c1ccc(Oc2nccc(-c3c(-c4ccc(F)cc4)ncn3C3CCNCC3)n2)cc1,> 25 µM,> 25 µM,> 25 µM,> 25 µM,> 25 µM,> 25 µM,> 25 µM,> 25 µM,> 25 µM,> 25 µM,> 25 µM,> 25 µM,> 25 µM,> 25 µM,> 25 µM,> 25 µM,> 25 µM,> 25 µM,–,–
COC(=O)C/C(C)=C/[C@@H](O)[C@H]1O[C@@H]2CC/C(Cl)=C/C/C=C(/C)[C@H](OC(C)=O)CC(=O)O[C@@H]1C2,0.708 µM,2.53 µM,10 µM,> 25 µM,1.16 µM,4.51 µM,1.68 µM,15.7 µM,0.367 µM,13.8 µM,–,–,2.34 µM,9.23 µM,4.55 µM,13.2 µM,1.85 µM,> 25 µM,2.92 µM,7.92 µM
Cc1ccc(C)c(-n2c(-c3ccc(Br)cc3)csc2=NC(=O)c2ccccc2F)c1,> 100 µM,> 100 µM,> 100 µM,> 100 µM,–,–,> 100 µM,> 100 µM,–,–,> 100 µM,> 100 µM,> 100 µM,> 100 µM,> 100 µM,> 100 µM,> 100 µM,> 100 µM,> 100 µM,> 100 µM
CC(C)SC1SCC2C(=O)N(C)C3(CC3C)C(=O)OCC(NC(=O)c3nc4ccccc4cc3O)C(=O)NC(C)C(=O)N(C)C1C(=O)N(C)C1(CC1C)C(=O)OCC(NC(=O)c1nc3ccccc3cc1O)C(=O)NC(C)C(=O)N2C (centres undefined),–,< 0.0001 µM,–,17 µM,–,> 100 µM,–,–,–,–,–,< 0.0001 µM,–,< 0.0001 µM,–,< 0.0001 µM,–,< 0.0001 µM,–,< 0.0001 µM
NC(=O)c1csc(C2O[C@@H](COP(=O)(O)OP(=O)(O)OC[C@H]3OC(n4cnc5c(N)ncnc54)[C@H](O)[C@@H]3O)[C@H](O)[C@@H]2O)n1 (some centres undefined),–,> 100 µM,–,> 100 µM,–,> 100 µM,–,> 100 µM,–,> 100 µM,–,> 100 µM,–,–,–,> 100 µM,–,> 100 µM,–,> 100 µM
N#Cc1c2ccccc2c2nnc3cc(C(F)(F)F)ccc3n12,> 100 µM,> 100 µM,36.3 µM,> 100 µM,25.7 µM,> 100 µM,46.9 µM,> 100 µM,37.1 µM,> 100 µM,79.9 µM,> 100 µM,–,–,51.2 µM,> 100 µM,70.3 µM,> 100 µM,–,–
COc1cc(/C=C2\CC(C)CC3C2=NN(c2ccccc2)C3c2cc(OC)c(OC)c(OC)c2)cc(OC)c1OC (centres undefined),27 µM,> 100 µM,14.9 µM,> 100 µM,11 µM,44.6 µM,20.2 µM,> 100 µM,11.1 µM,28.4 µM,14.1 µM,> 100 µM,–,–,9.77 µM,39 µM,22 µM,> 100 µM,20.4 µM,> 100 µM
Cc1cc(N(CCC#N)CCC#N)ccc1N=Nc1ccccc1[N+](=O)[O-],–,> 100 µM,–,> 100 µM,–,> 100 µM,–,> 100 µM,–,–,–,> 100 µM,–,> 100 µM,–,> 100 µM,–,> 100 µM,–,> 100 µM
CCOC(=O)c1[nH]c2cccc3c2c1CC(Br)C3=O (centres undefined),–,17.3 µM,–,38.2 µM,–,20.2 µM,–,20.4 µM,–,47.8 µM,–,26.2 µM,–,–,–,30.1 µM,–,19.2 µM,–,28.6 µM
COCC1N=C(c2ccc(OC)c(OCc3ccccc3)c2OC)O[C@H]1c1ccccc1 (some centres undefined),–,96.1 µM,–,> 100 µM,–,52.4 µM,–,> 100 µM,–,35 µM,–,55 µM,–,97.3 µM,–,60.6 µM,–,30.1 µM,–,–
O=C(c1ccccc1)c1ccc2cccc(O)c2n1,–,51.6 µM,–,> 100 µM,–,> 100 µM,–,> 100 µM,–,–,–,> 100 µM,–,69 µM,–,68.3 µM,–,> 100 µM,–,–
COc1cc(-c2cc(C(=O)Nc3nc4ccccc4s3)nc3cc(-c4ccccc4)nn23)cc(OC)c1OC,2.59 µM,12.8 µM,–,–,45.7 µM,> 100 µM,56.3 µM,> 100 µM,29.1 µM,> 100 µM,13.3 µM,52.1 µM,6.22 µM,22.1 µM,5.14 µM,32.6 µM,> 100 µM,> 100 µM,–,–
COc1ccc2c(CN3CCC(CO)CC3)cc3cc4c(cc3c2c1)OCO4,0.227 µM,4.65 µM,–,–,0.0825 µM,0.45 µM,0.305 µM,11.6 µM,0.143 µM,3.21 µM,0.316 µM,3.39 µM,0.0843 µM,0.847 µM,0.265 µM,8.82 µM,0.252 µM,19 µM,0.156 µM,0.393 µM
COc1ccc(-c2nc3sccn3c2/C=C/C(=O)c2cc(OC)c(OC)c(OC)c2)cc1OC,3.36 µM,20.4 µM,2.62 µM,6.03 µM,3.24 µM,> 100 µM,1.2 µM,3.31 µM,1.99 µM,3.76 µM,2.18 µM,5.71 µM,–,–,–,–,0.639 µM,8.19 µM,2.65 µM,7.17 µM
O=NN(CCCl)C(=O)NCc1ccc[n+]([O-])c1,–,> 100 µM,–,> 100 µM,–,> 100 µM,–,> 100 µM,–,> 100 µM,–,> 100 µM,–,> 100 µM,–,> 100 µM,–,–,–,> 100 µM
O=[N+]([O-])c1ccc(OCCNc2cccc3ccccc23)cc1,–,> 100 µM,–,> 100 µM,–,> 100 µM,–,> 100 µM,–,> 100 µM,–,> 100 µM,–,–,–,> 100 µM,–,> 100 µM,–,> 100 µM
